{"source": "patent US20260191194A1", "about": "“OXABICYCLOALKANE COMPOUNDS, PREPARATION METHOD THEREFOR, AND HERBICIDAL COMPOSITION AND USE THEREOF” (QINGDAO KINGAGROOT CHEMICAL COMPOUND CO., LTD., priority 2022, published 2026)", "assay_type_in_all_cases": "in vivo", "key": {"[1]": {"system": "Echinochloa crus-galli var. austrojaponensis", "experiment": "Activity test of compositions, early post-emergence foliage spray (F-EP)", "settings": "21 days after treatment; for pest or weed control at 450 g/ha: B alone 450 g a.i./ha", "procedure": "(§1) The required active ingredient B was purchased from a reagent company or synthesized by a known method. The technical materials were all dissolved with acetone solvents and diluted with an aqueous solution of 0.1% Tween 80 emulsifier, which were to be used immediately after dilution.\n(§2) Weeds were cultivated by a pot culture method. […] Weed seeds with plump and uniform grains were selected, soaked in lukewarm water at 25° C. for 6 hours, and accelerated to germinate in a 28° C. biochemical incubator (in darkness). The weed seeds that had just germinated were evenly placed on the surface of the soil and then covered with 0.5-1 cm soil according to the sizes of seeds.\n(§3) The culture was carried out in a controllable sunlight greenhouse at 20 to 30° C., in natural light, and with relative humidity of 57% to 72%.\n(§4) Each treatment was repeated 4 times. Four pots with 20 weed seeds sowed per pot were treated each time.\n(§5) The agents were used once in total in the experiment. In the stage of 1-2 leaves, the weeds were thinned out to maintain 10 strains per treatment for later use.\n(§6) The well-cultured test materials were evenly placed on a platform with an area of 0.5 m^2, and foliage spraying was carried out by the 3WP-2000-type walking spray tower at a dosage of 450 kg/ha and a spray pressure of 0.3 MPa. After all the solution was sprayed, the air valve was closed, and 30 seconds later, the door of the spray tower was opened, and the nutritional bowl was taken out. Then the air valve was opened, and the spray tube was cleaned by spraying 50 ml of water. The test materials were transferred to and routinely cultured in a greenhouse after the treatment.\n(§7) A method for investigating absolute numbers was employed. Whole seedlings of survival weeds were cut off with a blade along the soil surface, and the fresh weight of the weeds was weighed using an analytical balance. For dead weeds, the fresh weight thereof was zero.\n(§8) The investigation was performed 21 days after the treatment for once in total.\n(§9) The theoretical fresh weight inhibition rate of a mixed combination of each treatment was calculated by the Gowing method (E0=X+Y−X*Y/100). […] An optimal ratio was determined according to the actual control effects, characteristics of herbicides, and balance of the formulation. In the formula, X represents the fresh weight inhibition rate of the active ingredient A in a dosage of P; Y represents the fresh weight inhibition rate of the active ingredient B in a dosage of Q. The statistical results are shown in Table 4."}, "Echinochloa glabrescens [2]": {"system": "Echinochloa glabrescens", "experiment": "Activity test of compositions, soil sealing treatment (S)", "settings": "21 days after treatment", "procedure": "as §1\n(§10) Weeds were cultivated in a controllable sunlight greenhouse at 20 to 30° C., in natural light, and with relative humidity of 57% to 72%. […] The test soil was quantitatively filled to 3/4 of the pot, and then watered from the bottom of the pot to completely wet the soil to saturation. The test weed seeds were accelerated to just germinate, and then evenly and quantitatively sowed on the soil surface, covered with 0.5-1 cm soil according to the sizes of the seeds, and ready for use 72 hours after sowing.\nas §4\nas §6, with “well-sowed” for “well-cultured”, “water.” for “water. The test materials were transferred to and routinely cultured in a greenhouse after the treatment.”\nas §7, §8, §9"}, "Digitaria ischaemum": {"system": "Digitaria ischaemum", "experiment": "Activity test of compositions, soil sealing treatment (S)", "settings": "21 days after treatment", "from_the_text": "as §1\nThe test soil was quantitatively filled to 3/4 of the pot, and then watered from the bottom of the pot to completely wet the soil to saturation. The test weed seeds were accelerated to just germinate, and then evenly and quantitatively sowed on the soil surface, covered with 0.5-1 cm soil according to the sizes of the seeds, and ready for use 72 hours after sowing.\nas §4\nas §6, with “well-sowed” for “well-cultured”, “water.” for “water. The test materials were transferred to and routinely cultured in a greenhouse after the treatment.”\nas §7, §8, §9"}, "Cyperus glomeratus [3]": {"system": "Cyperus glomeratus", "experiment": "Activity test of compositions, soil sealing treatment (S)", "settings": "21 days after treatment", "procedure": "as §1, §10, §4\nas §6, with “well-sowed” for “well-cultured”, “water.” for “water. The test materials were transferred to and routinely cultured in a greenhouse after the treatment.”\nas §7, §8, §9"}, "Echinochloa glabrescens [4]": {"system": "Echinochloa glabrescens", "experiment": "Activity test of compositions, early post-emergence foliage spray (F-EP)", "settings": "21 days after treatment", "procedure": "as §1, §2, §3, §4, §5, §6, §7, §8, §9"}, "Arivela viscosa": {"system": "Arivela viscosa", "experiment": "Activity test of compositions, soil sealing treatment (S)", "settings": "B alone 75 g a.i./ha, 21 days after treatment", "procedure": "as §1, §10, §4\nas §6, with “well-sowed” for “well-cultured”, “water.” for “water. The test materials were transferred to and routinely cultured in a greenhouse after the treatment.”\nas §7, §8, §9"}, "Oxybasis glauca": {"system": "Oxybasis glauca", "experiment": "Activity test of compositions, soil sealing treatment (S)", "settings": "B alone 7.5 g a.i./ha, 21 days after treatment", "procedure": "as §1, §10, §4\nas §6, with “well-sowed” for “well-cultured”, “water.” for “water. The test materials were transferred to and routinely cultured in a greenhouse after the treatment.”\nas §7, §8, §9"}, "Cyperus glomeratus [5]": {"system": "Cyperus glomeratus", "experiment": "Activity test of compositions, early post-emergence foliage spray (F-EP)", "settings": "21 days after treatment", "procedure": "as §1, §2, §3, §4, §5, §6, §7, §8, §9"}, "Soliva anthemifolia": {"system": "Soliva anthemifolia", "experiment": "Activity test of compositions, early post-emergence foliage spray (F-EP)", "settings": "21 days after treatment", "procedure": "as §1, §2, §3, §4, §5, §6, §7, §8, §9"}, "[6]": {"settings": "Echinochloa crus-galli, 504 h, read-out: Control effect of B applied alone in a corresponding dose"}}, "data": [{"molecule": "CCNc1nc(Cl)nc(NC(C)C)n1", "note": "[atrazine]", "values": [{"measurement": "pest or weed control at 450 g/ha", "setting": "[1]; [6]", "value": 43.4, "unit": "%"}]}, {"molecule": "CCCCOCN(C(=O)CCl)c1c(CC)cccc1CC", "note": "[butachlor]", "values": [{"measurement": "Control effect of B applied alone in a corresponding dose", "setting": "Echinochloa glabrescens [2]; B alone 300 g a.i./ha", "value": 41.3}]}, {"molecule": "CCC(CC)Nc1c([N+](=O)[O-])cc(C)c(C)c1[N+](=O)[O-]", "note": "[pendimethalin]", "values": [{"measurement": "Control effect of B applied alone in a corresponding dose", "setting": "Digitaria ischaemum; B alone 375 g a.i./ha", "value": 65.7}]}, {"molecule": "Cc1cc(C)n(Cc2c(S(C)(=O)=O)ccc(C(=O)c3c(C)nn(C)c3OC(=O)c3cn(C)nc3C)c2Cl)n1", "note": "[tripyrasulfone]", "values": [{"measurement": "Control effect of B applied alone in a corresponding dose", "setting": "[1]; B alone 60 g a.i./ha", "value": 50.4, "unit": "%"}]}, {"molecule": "COc1cnc(OC)n2nc(NS(=O)(=O)c3c(OCC(F)F)cccc3C(F)(F)F)nc12", "note": "[penoxsulam]", "values": [{"measurement": "Control effect of B applied alone in a corresponding dose", "setting": "Cyperus glomeratus [3]; B alone 7.5 g a.i./ha", "value": 26.4, "unit": "%"}]}, {"molecule": "CCCCOC(=O)[C@@H](C)Oc1ccc(Oc2ccc(C#N)cc2F)cc1", "note": "[cyhalofop-butyl]", "values": [{"measurement": "Control effect of B applied alone in a corresponding dose", "setting": "Echinochloa glabrescens [4]; B alone 150 g a.i./ha", "value": 46.6, "unit": "%"}]}, {"molecule": "CC1(C)CON(Cc2ccccc2Cl)C1=O", "note": "[clomazone]", "values": [{"measurement": "Control effect of B applied alone in a corresponding dose", "setting": "Arivela viscosa", "value": 70.6, "unit": "%"}]}, {"molecule": "CCC(C)Nc1c([N+](=O)[O-])cc(C(C)(C)C)cc1[N+](=O)[O-]", "note": "(centres unmarked) [butralin]", "values": [{"measurement": "Control effect of B applied alone in a corresponding dose", "setting": "Digitaria ischaemum; B alone 900 g a.i./ha", "value": 60.2}]}, {"molecule": "CCCOCCN(C(=O)CCl)c1c(CC)cccc1CC", "note": "[pretilachlor]", "values": [{"measurement": "Control effect of B applied alone in a corresponding dose", "setting": "Echinochloa glabrescens [2]; B alone 150 g a.i./ha", "value": 43.6}]}, {"molecule": "CSc1nnc(C(C)(C)C)c(=O)n1N", "note": "[metribuzin]", "values": [{"measurement": "pest or weed control at 150 g/ha", "setting": "[1]; Echinochloa crus-galli, 504 h, B alone 150 g a.i./ha, read-out: Control effect of B applied alone in a corresponding dose", "value": 42.9, "unit": "%"}]}, {"molecule": "COC(=O)c1sccc1S(=O)(=O)NC(=O)Nc1nc(C)nc(OC)n1", "note": "[thifensulfuronmethyl, thifensulfuron-methyl]", "values": [{"measurement": "Control effect of B applied alone in a corresponding dose", "setting": "Oxybasis glauca", "value": 68.6}]}, {"molecule": "CCOc1cc(Oc2ccc(C(F)(F)F)cc2Cl)ccc1[N+](=O)[O-]", "note": "[oxyfluorfen]", "values": [{"measurement": "Control effect of B applied alone in a corresponding dose", "setting": "Cyperus glomeratus [3]; B alone 45 g a.i./ha", "value": 37.2, "unit": "%"}]}, {"molecule": "CC(C)Oc1cc(-n2nc(C(C)(C)C)oc2=O)c(Cl)cc1Cl", "note": "[oxadiazon]", "values": [{"measurement": "Control effect of B applied alone in a corresponding dose", "setting": "Cyperus glomeratus [3]; B alone 90 g a.i./ha", "value": 32.4, "unit": "%"}]}, {"molecule": "Cc1ccc(NC(=O)N(C)C)cc1Cl", "note": "[chlorotoluron]", "values": [{"measurement": "pest or weed control at 450 g/ha", "setting": "[1]; [6]", "value": 37.6, "unit": "%"}]}, {"molecule": "CCOC(=O)c1cnn(C)c1S(=O)(=O)NC(=O)Nc1nc(OC)cc(OC)n1", "note": "[pyrazosulfuronethyl, pyrazosulfuron-ethyl]", "values": [{"measurement": "Control effect of B applied alone in a corresponding dose", "setting": "Cyperus glomeratus [3]; B alone 7.5 g a.i./ha", "value": 29.8, "unit": "%"}]}, {"molecule": "CCCC(=NOCC(C)Oc1ccc(Cl)cc1)C1=C(O)CC(C2CCCSC2)CC1=O", "note": "(centres unmarked) [profoxydim]", "values": [{"measurement": "Control effect of B applied alone in a corresponding dose", "setting": "Echinochloa glabrescens [4]; B alone 45 g a.i./ha", "value": 54.7, "unit": "%"}]}, {"molecule": "CCC(=O)Nc1ccc(Cl)c(Cl)c1", "note": "[propanil]", "values": [{"measurement": "Control effect of B applied alone in a corresponding dose", "setting": "Cyperus glomeratus [5]; B alone 900 g a.i./ha", "value": 19.7}]}, {"molecule": "CS(=O)(=O)c1cc(C(F)(F)F)ccc1C(=O)c1cnoc1C1CC1", "note": "[isoxaflutole]", "values": [{"measurement": "pest or weed control at 30 g/ha", "setting": "[1]; Echinochloa crus-galli, 504 h, B alone 30 g a.i./ha (with A 60), read-out: Control effect of B applied alone in a corresponding dose", "value": 47.8, "unit": "%"}]}, {"molecule": "oxadiargyl", "values": [{"measurement": "Control effect of B applied alone in a corresponding dose", "setting": "Cyperus glomeratus [3]; B alone 45 g a.i./ha", "value": 42.5, "unit": "%"}]}, {"molecule": "Cc1cc(Cl)ccc1OCC(=O)OCCCCCC(C)C", "note": "[MCPA-isooctyl]", "values": [{"measurement": "Control effect of B applied alone in a corresponding dose", "setting": "Soliva anthemifolia; B alone 300 g a.i./ha", "value": 65, "unit": "%"}]}, {"molecule": "Nc1c(Cl)c(F)nc(OCC(=O)O)c1Cl", "note": "[fluroxypyr]", "values": [{"measurement": "Control effect of B applied alone in a corresponding dose", "setting": "Soliva anthemifolia; B alone 75 g a.i./ha", "value": 66.7, "unit": "%"}]}, {"molecule": "CCOCN(C(=O)CCl)c1c(C)cccc1CC", "note": "[acetochlor]", "values": [{"measurement": "Control effect of B applied alone in a corresponding dose", "setting": "Digitaria ischaemum; B alone 300 g a.i./ha", "value": 41.3}]}, {"molecule": "CC(C)N1C(=O)c2ccccc2NS1(=O)=O", "note": "[bentazone]", "values": [{"measurement": "Control effect of B applied alone in a corresponding dose", "setting": "Cyperus glomeratus [5]; B alone 300 g a.i./ha", "value": 43.8}]}]}
